Reference: patent publication US20110306606A1, “NOVEL 2,6-SUBSTITUTED-3-NITROPYRIDINE DERIVATIVE, METHOD FOR PREPARING SAME, AND PHARMACEUTICAL COMPOSITION INCLUDING SAME” (priority 2008, published 2011)

Tested on: Osteoblasts (Calvarial cells)
Experiment: Cytotoxicity test (MTT)
Conditions: 1 μM compound, 72 hours, in comparison with vehicle control
Experimental: For the preparation of osteoblasts (Calvarial cells), the calvaria were aseptically dissected from 1 to 2-day-old neonatal ICR mice and subjected to continuous reaction with a 0.2% collagenase solution to separate osteoblasts. The cell-suspended supernatant was centrifuged to recover osteoblasts which were grown to full confluence in an α-MEM supplemented with 10% FBS and then diluted to a desired cell density for use in the experiment.
Cytotoxicity of the compounds of the present invention was evaluated by carrying out the experiment described below.
The vehicle control group was established to contain 0.2% DMSO. 100 μL/well of the diluted drugs were dispensed into 96-well plates to which osteoblasts (calvarial cells) prepared in Experimental Example 1 were then added at a density of 1.0×10^4 cells/100 μL/well. Here, the final compound concentration in the cell culture was 1 μM, and the vehicle control group contained 0.1% DMSO. The cells were cultured in a 5% CO2 inhibitor at 37° for 72 hours. 25 μL of 3-(4,5-dimethyl-2-thiazolyl)-2,5-diphenyl-2H-tetrazolium bromide (MTT) dissolved in PBS (2 mg/mL) was added to each cell culture 4 hours before the end of culture. After completion of the reaction, the plates were centrifuged, the media were discarded, and 100 μL of formazan was added and dissolved in dimethyl sulfoxide (DMSO). Finally, the absorbance of the developed plates was measured at 540 nm. The cell viability was expressed as % concentration in comparison with the vehicle control group.

| Compound | Cell viability (%) Calvarial cell [%] |
| --- | --- |
| CC1CCCCN1c1ccc(Nc2nc(NCCN3CCOCC3)ccc2[N+](=O)[O-])cc1F (stereo not drawn) [Compound 273, 2-{[3-fluoro-4-(2-methylpiperidino)]phenylamino}-6-[2-(morpholin-1-yl)ethylamino]-3-nitropyridine] | 115 |
| NC(=O)C1CCN(c2ccc(Nc3nc(N4CCNCC4)ccc3[N+](=O)[O-])cc2F)CC1 [Compound 294, 2-{[3-fluoro-4-(4-carbamoylpiperidino)]phenylamino}-6-(piperazin-1-yl)-3-nitropyridine] | 95 |
| CN1CCN(c2ccc([N+](=O)[O-])c(Nc3ccc(N4CCCC(C(N)=O)C4)c(F)c3)n2)CC1 (stereo not drawn) [Compound 307, 2-{[3-fluoro-4-(3-carbamoylpiperidino)]phenylamino}-6-(4-methylpiperazin-1-yl)-3-nitropyridine] | 131 |
| O=[N+]([O-])c1ccc(N2CCNCC2)nc1Nc1ccc(N2CCC(O)CC2)c(F)c1 [Compound 245, 2-{[3-fluoro-4-(4-hydroxypiperidino)]phenylamino}-6-(piperazin-1-yl)-3-nitropyridine] | 101 |
| NC(=O)C1CCCN(c2ccc(Nc3nc(NCCCn4ccnc4)ccc3[N+](=O)[O-])cc2F)C1 (stereo not drawn) [Compound 312, 2-{[3-fluoro-4-(3-carbamoylpiperidino)]phenylamino}-6-[(3-imidazol-1-yl)propylamino]-3-nitropyridine] | 98 |
| CC1=NCCN1c1ccc([N+](=O)[O-])c(Nc2ccc(N3CCOCC3)c(F)c2)n1 [Compound 195, 2-[(3-fluoro-4-morpholino)phenylamino]-6-[(2-methyl-4,5-dihydro)imidazol-1-yl]-3-nitropyridine] | 104 |
| CCN(CC)c1ccc(Nc2nc(NCCCN3CCOCC3)ccc2[N+](=O)[O-])cc1F [Compound 190, 2-[(3-fluoro-4-diethylamino)phenylamino]-6-[(3-morpholin-1-yl)propylamino]-3-nitropyridine] | 123 |
| O=[N+]([O-])c1ccc(N2CCNCC2)nc1Nc1ccc(N2CCCC(CO)C2)c(F)c1 (stereo not drawn) [Compound 281, 2-{[3-fluoro-4-(3-hydroxymethylpiperidino)]phenylamino}-6-(piperazin-1-yl)-3-nitropyridine] | 107 |
| CC1CCCCN1c1ccc(Nc2nc(N3CCNCC3)ccc2[N+](=O)[O-])cc1F (stereo not drawn) [Compound 267, 2-{[3-fluoro-4-(2-methylpiperidino)]phenylamino}-6-(piperazin-1-yl)-3-nitropyridine] | 107 |
| CCN(CC)c1ccc(Nc2nc(N3CCNCC3)ccc2[N+](=O)[O-])cc1F [Compound 182, 2-[(3-fluoro-4-diethylamino)phenylamino]-6-(piperazin-1-yl)-3-nitropyridine] | 101 |
| O=[N+]([O-])c1ccc(N2CCC(O)CC2)nc1Nc1ccc(N2CCOCC2)c(F)c1 [Compound 194, 2-[(3-fluoro-4-morpholino)phenylamino]-6-(4-hydroxypiperidino)-3-nitropyridine] | 107 |
| CN(CC1OCCO1)c1ccc([N+](=O)[O-])c(Nc2ccc(N3CCOCC3)cc2)n1 [Compound 111, 2-(4-morpholinophenylamino)-6-[(N-[1,3]-dioxolan-2-ylmethyl)methylamino]-3-nitropyridine] | 95 |
| O=[N+]([O-])c1ccc(NCc2cccnc2)nc1Nc1ccc(N2CCCC(CO)C2)c(F)c1 (stereo not drawn) [Compound 285, 2-{[3-fluoro-4-(3-hydroxymethylpiperidino)]phenylamino}-6-[(3-pyridyl)methylamino]-3-nitropyridine] | 106 |
| CC1CCCCN1c1ccc(Nc2nc(NC(C)(C)C)ccc2[N+](=O)[O-])cc1F (stereo not drawn) [Compound 264, 2-{[3-fluoro-4-(2-methylpiperidino)]phenylamino}-6-(t-butylamino)-3-nitropyridine] | 117 |
| CCN(CC)c1ccc(Nc2nc(NCc3ccncc3)ccc2[N+](=O)[O-])cc1F [Compound 186, 2-[(3-fluoro-4-diethylamino)phenylamino]-6-[(4-pyridyl)methylamino]-3-nitropyridine] | 113 |
| CCN(CC)c1ccc(Nc2nc(NCCN3CCOCC3)ccc2[N+](=O)[O-])cc1F [Compound 188, 2-[(3-fluoro-4-diethylamino)phenylamino]-6-[2-(morpholin-1-yl)ethylamino]-3-nitropyridine] | 111 |
| CC(C)Nc1ccc([N+](=O)[O-])c(Nc2ccc(N3CCSCC3)c(F)c2)n1 [Compound 204, 2-[(3-fluoro-4-thiomorpholino)phenylamino]-6-(isopropylamino)-3-nitropyridine] | 102 |
| CCN(CC)c1ccc(Nc2nc(NCc3cccnc3)ccc2[N+](=O)[O-])cc1F [Compound 185, 2-[(3-fluoro-4-diethylamino)phenylamino]-6-[(3-pyridyl)methylamino]-3-nitropyridine] | 111 |

| Compound | Cell viability (%) Calvarial cell [%] |
| --- | --- |
| CC(C)Nc1ccc([N+](=O)[O-])c(Nc2ccc(N3CCC(N)CC3)c(F)c2)n1 [Compound 249, 2-{[3-fluoro-4-(4-aminopiperidino)]phenylamino}-6-(isopropylamino)-3-nitropyridine] | 101 |
| CNc1ccc([N+](=O)[O-])c(Nc2ccc(N3CCC(C(=O)O)CC3)c(F)c2)n1 [Compound 316, 2-{[3-fluoro-4-(4-carboxylicpiperidino)]phenylamino}-6-(methylamino)-3-nitropyridine] | 95 |
| CC(C)(C)Nc1ccc([N+](=O)[O-])c(Nc2ccc(N3CCCC(CO)C3)c(F)c2)n1 (stereo not drawn) [Compound 278, 2-{[3-fluoro-4-(3-hydroxymethylpiperidino)]phenylamino}-6-(t-butylamino)-3-nitropyridine] | 118 |
| CC(C)Nc1ccc([N+](=O)[O-])c(Nc2ccc(N3CCCCC3C)c(F)c2)n1 (stereo not drawn) [Compound 262, 2-{[3-fluoro-4-(2-methylpiperidino)]phenylamino}-6-(isopropylamino)-3-nitropyridine] | 109 |
| COc1ccc(Nc2nc(N(C)CCO)ccc2[N+](=O)[O-])cc1 [Compound 24, 2-(4-methoxyphenylamino)-6-[(N-methyl-2-hydroxy)ethylamino]-3-nitropyridine] | 99 |
| O=C(O)C1CCN(c2ccc(Nc3nc(N4CCC(O)CC4)ccc3[N+](=O)[O-])cc2F)CC1 [Compound 319, 2-{[3-fluoro-4-(4-carboxylicpiperidino)]phenylamino}-6-(4-hydroxypiperidino)-3-nitropyridine] | 112 |
| CCN(CC)c1ccc(Nc2nc(NC(C)(C)C)ccc2[N+](=O)[O-])cc1F [Compound 178, 2-[(3-fluoro-4-diethylamino)phenylamino]-6-(t-butylamino)-3-nitropyridine] | 109 |
| CN1CCN(c2ccc([N+](=O)[O-])c(Nc3ccc(N4CCC(C(=O)O)CC4)c(F)c3)n2)CC1 [Compound 320, 2-{[3-fluoro-4-(4-carboxylicpiperidino)]phenylamino}-6-(4-methylpiperazin-1-yl)-3-nitropyridine] | 101 |
| CC(C)CNc1ccc([N+](=O)[O-])c(Nc2ccc(N3CCCC(C(N)=O)C3)c(F)c2)n1 (stereo not drawn) [Compound 303, 2-{[3-fluoro-4-(3-carbamoylpiperidino)]phenylamino}-6-(isobutylamino)-3-nitropyridine] | 102 |
| CC1CCCCN1c1ccc(Nc2nc(NCCCn3ccnc3)ccc2[N+](=O)[O-])cc1F (stereo not drawn) [Compound 272, 2-{[3-fluoro-4-(2-methylpiperidino)]phenylamino}-6-[(3-imidazol-1-yl)propylamino]-3-nitropyridine] | 98 |
| CCN(CC)c1ccc([N+](=O)[O-])c(Nc2ccc(N3CCCC(C(N)=O)C3)c(F)c2)n1 (stereo not drawn) [Compound 315, 2-{[3-fluoro-4-(3-carbamoylpiperidino)]phenylamino}-6-(diethylamino)-3-nitropyridine] | 104 |
| CCN(CC)c1ccc(Nc2nc(NC)ccc2[N+](=O)[O-])cc1F [Compound 175, 2-[(3-fluoro-4-diethylamino)phenylamino]-6-(methylamino)-3-nitropyridine] | 104 |
| NC1CCN(c2ccc([N+](=O)[O-])c(Nc3ccc(N4CCCC(CO)C4)c(F)c3)n2)CC1 (stereo not drawn) [Compound 284, 2-{[3-fluoro-4-(3-hydroxymethylpiperidino)]phenylamino}-6-(4-aminopiperidino)-3-nitropyridine] | 100 |
| Nc1cccc(Nc2nc(NCCN3CCOCC3)ccc2[N+](=O)[O-])c1 [Compound 83, 2-[3-(amino)phenylamino]-6-[2-(morpholin-1-yl)ethylamino]-3-nitropyridine] | 99 |
| Nc1cccc(Nc2nc(NCCCN3CCOCC3)ccc2[N+](=O)[O-])c1 [Compound 84, 2-[3-(amino)phenylamino]-6-[3-(morpholin-1-yl)propylamino]-3-nitropyridine] | 108 |
| NC(=O)C1CCCN(c2ccc(Nc3nc(N4CCC(O)CC4)ccc3[N+](=O)[O-])cc2F)C1 (stereo not drawn) [Compound 305] | 107 |
| Cc1ccc(Nc2nc(NCc3ccncc3)ccc2[N+](=O)[O-])cc1 [Compound 8] | 92 |
| O=[N+]([O-])c1ccc(N2CCC(O)CC2)nc1Nc1ccc(N2CCCC(CO)C2)c(F)c1 (stereo not drawn) [Compound 279, 2-{[3-fluoro-4-(3-hydroxymethylpiperidino)]phenylamino}-6-(4-hydroxypiperidino)-3-nitropyridine] | 102 |
